Experimental data as given in patent US12543736B2, “Herbicidal compositions comprising mesotrione” (BASF SE, priority 2024, dated 2026).

Tests used:
Assay type in all cases: in vivo
[1] = test system: Kochia scoparia; assay: Example 1 post-emergence greenhouse trial, KCHSC; details: growth stage 19, 21 DAT
Protocol: (§1) In the examples below, using the method of S. R. Colby (1967) “Calculating synergistic and antagonistic responses of herbicide combinations”, Weeds 15, p. 22ff., the value E, which is expected if the activity of the individual active compounds is only additive, was calculated: [formula] • where • X=percent activity using active herbicide A at an application rate a; • Y=percent activity using active herbicide B (e.g. mesotrione) at an application rate b; • E=expected activity (in %) by A+B at application rates a+b. If the value found experimentally is higher than the value E calculated according to Colby, a synergistic effect is present. The culture containers used were plastic pots containing loamy sand with approximately 3.0% of humus as substrate. The seeds of the test plants were sown separately for each species. For the post-emergence treatment, the test plants were grown to a plant height of from 3 to 15 cm, depending on the plant habit, and only then treated with the active compounds which had been suspended or emulsified in water. To this end, the test plants were either sown directly, and grown in the same containers, or they were first grown separately as seedlings and transplanted into the test containers a few days prior to treatment. Depending on the species, the plants were kept at 10-25° C. and 20-35° C., respectively. The test period extended over 2 to 4 weeks. During this time, the plants were tended and their response to the individual treatments was evaluated. Evaluation was carried out using a scale from 0 to 100. 100 means no emergence of the plants, or complete destruction of at least the above-ground parts, and 0 means no damage or normal course of growth. A good herbicidal activity is given at values of at least 70, and very good herbicidal activity is given at values of at least 85. Post-Emergence Application of Herbicide A-1 (A-1) and Mesotrione (B) in Greenhouse Trials Herbicide A-1 (50 g/l) and mesotrione (480 g/l) were, together with addition of 1 v/v % MSO (methylated sed oil) as adjuvant, formulated in water as distribution medium (water volume 200 l/ha) and sprayed with commercial flat fan nozzles.

[2] = test system: Eleusine indica; assay: Example 1 post-emergence greenhouse trial, ELEIN; details: growth stage 14, 21 DAT
Protocol: as §1

[3] = test system: Zea mays; assay: Example 3 post-emergence field trial, ZEAMX
Protocol: (§2) In the examples below, using the method of S. R. Colby (1967) “Calculating synergistic and antagonistic responses of herbicide combinations”, Weeds 15, p. 22ff., the value E, which is expected if the activity of the individual active compounds is only additive, was calculated: [formula] • where • X=percent activity using active herbicide A at an application rate a; • Y=percent activity using active herbicide B (e.g. mesotrione) at an application rate b; • E=expected activity (in %) by A+B at application rates a+b. If the value found experimentally is higher than the value E calculated according to Colby, a synergistic effect is present. Evaluation was carried out using a scale from 0 to 100. 100 means no emergence of the plants, or complete destruction of at least the above-ground parts, and 0 means no damage or normal course of growth. A good herbicidal activity is given at values of at least 70, and very good herbicidal activity is given at values of at least 85. Post-Emergence Application of Herbicide A-1 (A-1) and Mesotrione (B) in Field Trials Herbicide A-1 (342 g/l) and mesotrione (100 g/l) were, together with addition of 0.5 v/v % MSO (methylated sed oil) as adjuvant, formulated in water as distribution medium (water volume 200 l/ha) and sprayed with commercial flat fan nozzles.

[4] = test system: Commelina benghalensis; assay: Example 4 post-emergence application A-1, B and C-19, COMBE; details: growth stage 13, 21 DAT, g ai/ha: A-1 1, B 50, C-19 30
Protocol: (§3) In the examples below, using the method of S. R. Colby (1967) “Calculating synergistic and antagonistic responses of herbicide combinations”, Weeds 15, p. 22ff., the value E, which is expected if the activity of the individual active compounds is only additive, was calculated:
(§4) [formula] • where • X=percent activity using active herbicide A at an application rate a; • Y=percent activity using active herbicide B (e.g. mesotrione) at an application rate b; • E=expected activity (in %) by A+B at application rates a+b.
(§5) If the value found experimentally is higher than the value E calculated according to Colby, a synergistic effect is present.
(§6) Evaluation was carried out using a scale from 0 to 100. 100 means no emergence of the plants, or complete destruction of at least the above-ground parts, and 0 means no damage or normal course of growth. A good herbicidal activity is given at values of at least 70, and very good herbicidal activity is given at values of at least 85.
(§7) Post-Emergence Application of Herbicide A-1 (A-1), Mesotrione (B) and Pyroxasulfone (C-19)
(§8) Herbicide A-1 (342 g/l), mesotrione (100 g/l) and pyroxasulfone (500 g/l) were, together with addition of 0.5 v/v % MSO (methylated sed oil) as adjuvant, formulated in water as distribution medium (water volume 200 l/ha) and sprayed with commercial flat fan nozzles.

[5] = test system: Zea mays; assay: Example 4 post-emergence application A-1, B and C-19, ZEAMX; details: growth stage 12, 21 DAT, g ai/ha: A-1 2, B 50, C-19 30
Protocol: as §3, §4, §5, §6, §7, §8

[6] = test system: Setaria verticillata; assay: Example 3 post-emergence field trial, SETVE; details: height 8-16 cm; for % herbicidal activity B / % herbicidal activity A-1: 42 DAT; for % herbicidal activity: g ai/ha: A-1 18, B 105
Protocol: as §2

[7] = test system: Brachiaria decumbens; assay: Example 1 post-emergence greenhouse trial, BRADC; details: growth stage 13, 21 DAT, g ai/ha: A-1 4, B 62.5
Protocol: In the examples below, using the method of S. R. Colby (1967) “Calculating synergistic and antagonistic responses of herbicide combinations”, Weeds 15, p. 22ff., the value E, which is expected if the activity of the individual active compounds is only additive, was calculated: [formula] • where • X=percent activity using active herbicide A at an application rate a; • Y=percent activity using active herbicide B (e.g. mesotrione) at an application rate b; • E=expected activity (in %) by A+B at application rates a+b. If the value found experimentally is higher than the value E calculated according to Colby, a synergistic effect is present. The culture containers used were plastic pots containing loamy sand with approximately 3.0% of humus as substrate. The seeds of the test plants were sown separately for each species. For the post-emergence treatment, the test plants were grown to a plant height of from 3 to 15 cm, depending on the plant habit, and only then treated with the active compounds which had been suspended or emulsified in water. To this end, the test plants were either sown directly, and grown in the same containers, or they were first grown separately as seedlings and transplanted into the test containers a few days prior to treatment. […] During this time, the plants were tended and their response to the individual treatments was evaluated. […]

[8] = height 27-33 cm, 7 DAT, g ai/ha: A-1 12.5, B 105
[9] = height 27-33 cm, 7 DAT, g ai/ha: A-1 12.5, B 210
[10] = height 27-33 cm, 7 DAT, g ai/ha: A-1 18, B 105
[11] = height 27-33 cm, 7 DAT, g ai/ha: A-1 18, B 210
[12] = height 27-33 cm, 21 DAT, g ai/ha: A-1 12.5, B 105
[13] = height 27-33 cm, 21 DAT, g ai/ha: A-1 12.5, B 210
[14] = height 27-33 cm, 21 DAT, g ai/ha: A-1 18, B 105
[15] = height 27-33 cm, 21 DAT, g ai/ha: A-1 18, B 210
[16] = height 27-33 cm, 28 DAT, g ai/ha: A-1 12.5, B 105
[17] = height 27-33 cm, 28 DAT, g ai/ha: A-1 12.5, B 210
[18] = height 27-33 cm, 28 DAT, g ai/ha: A-1 18, B 105
[19] = height 27-33 cm, 28 DAT, g ai/ha: A-1 18, B 210
[20] = height 40-60 cm, 7 DAT, g ai/ha: A-1 12.5, B 105
[21] = height 40-60 cm, 7 DAT, g ai/ha: A-1 12.5, B 210
[22] = height 40-60 cm, 7 DAT, g ai/ha: A-1 18, B 105
[23] = height 40-60 cm, 7 DAT, g ai/ha: A-1 18, B 210

Structure (SMILES)	% herbicidal activity ([1]; g ai/ha: A-1 0.5, B 62.5) [%]	% herbicidal activity ([1]; g ai/ha: A-1 1, B 62.5) [%]	% herbicidal activity ([2]; g ai/ha: A-1 2, B 62.5) [%]	% herbicidal activity ([2]; g ai/ha: A-1 4, B 62.5) [%]	% herbicidal activity [3, 8] [%]	% herbicidal activity [3, 9] [%]	% herbicidal activity [3, 10] [%]	% herbicidal activity [3, 11] [%]	% herbicidal activity [3, 12] [%]	% herbicidal activity [3, 13] [%]	% herbicidal activity [3, 14] [%]	% herbicidal activity [3, 15] [%]	% herbicidal activity [3, 16] [%]	% herbicidal activity [3, 17] [%]	% herbicidal activity [3, 18] [%]	% herbicidal activity [3, 19] [%]	% herbicidal activity [3, 20] [%]	% herbicidal activity [3, 21] [%]	% herbicidal activity [3, 22] [%]	% herbicidal activity [3, 23] [%]	also measured
CS(=O)(=O)c1ccc(C(=O)C2C(=O)CCCC2=O)c([N+](=O)[O-])c1 [B, mesotrione]	75	75	50	50	0	0	0	0	0	0	0	0	0	0	0	0	5	5	5	5	% herbicidal activity [4]: 90%; % herbicidal activity [5]: 0%; % herbicidal activity B ([6]; B 105 g ai/ha): 30%; % herbicidal activity B ([6]; B 210 g ai/ha): 20%; % herbicidal activity ([6]; 7 DAT): 50%; % herbicidal activity ([6]; 21 DAT): 35%; % herbicidal activity [7]: 20%
CCOC(=O)COc1ccccc1Oc1nc(-n2c(=O)cc(C(F)(F)F)n(C)c2=O)c(F)cc1Cl [A-1, ethyl 2-[2-[[3-chloro-5-fluoro-6-[3-methyl-2,6-dioxo-4-(trifluoromethyl)pyrimidin-1-yl]-2-pyridyl]oxy]phenoxy]acetate]	65	65	95	95	30	45	40	55	80	85	90	80	80	80	88	85	85	85	85	85	% herbicidal activity [4]: 80%; % herbicidal activity [5]: 40%; % herbicidal activity A-1 ([6]; A-1 12.5 g ai/ha (row with B 105)): 60%; % herbicidal activity A-1 ([6]; A-1 12.5 g ai/ha (row with B 210)): 50%; % herbicidal activity ([6]; 7 DAT): 80%; % herbicidal activity ([6]; 21 DAT): 75%; % herbicidal activity [7]: 98%
